# From patent US20240180884A1, “PYRIDOSTIGMINE FOR USE IN THE TREATMENT OF COVID-19” (priority 2021, published 2024)
# Test system: SARS-COV-2 infection (severe COVID-19)
# Test: Randomized, parallel, double-blind, placebo-controlled clinical trial of oral pyridostigmine in adults hospitalized due to severe COVID-19
# Format: in vivo, human
# Conditions: for Primary outcome: Invasive mechanical ventilation or death - %: N = 94, day 28, placebo 23.4%; for Death - % (28-day case fatality): day 28, 60 mg/day orally, placebo 20.2%; for Discharge - % (probability of being discharged from the hospital within 28 days of randomization): placebo 79.8%
# Procedure: The trial was conducted to reduce the incidence of mechanical ventilation or death in adults hospitalized due to severe COVID-19. A randomized, parallel, double-blind, placebo-controlled clinical trial was conducted. Participants were randomized (1:1 ratio) to receive oral pyridostigmine at a dose of 60 mg/day orally or an identical placebo (drug-grade starch) until the occurrence of any of the a priori specified outcomes, the hospital discharge or a maximum period of 14 days of hospital confinement, whichever comes first. The study was externally and independently watched and monitored by an independent Data and Security Monitoring Committee (DSMB). The study was conducted in two parts: an initial phase aimed at determining safety (from May 5 to Jul. 4, 2020) in which the first 44 participants were evaluated, followed by a part of a phase aimed at evaluating the effect, or lack thereof, of pyridostigmine in patients with severe COVID-19 (Jul. 5, 2020 to Jan. 30, 2021).
# Adult hospitalized patients (>18 years) with confirmed SARS-COV-2 infection based on a positive RT-PCR test for SARS-COV-2 ribonucleic acid in a respiratory sample (nasopharyngeal or nasal swab) and a imaging study compatible with pneumonia, and at least one criterion of high risk of death.
# Participants were randomized 1:1, with parallel allocation. Demographic information was collected from the participants at baseline, including age, sex, presence of comorbidities (including diabetes mellitus, hypertension, obesity, cardiovascular disease, lung disease or other chronic medical conditions). Participants who had already been discharged from the hospital by day 28 were contacted by phone to assess their vital and functional status.
# Based on early evidence from China, an estimated 25% of patients hospitalized with severe SARS-COV-2 infection would develop complications that would lead to the need for invasive mechanical ventilation or death. Consequently, it is estimated that this sample size would allow us to identify with a power of 80% a reduction in the need for invasive mechanical ventilation or death of 10% in the group that received pyridostigmine compared to the group that received placebo, using a two-tailed […] at the significance level of 0.05. […] Based on the results of said analysis and with the data presented here, it was decided to terminate the study early.
# The study was carried out at Instituto Nacional de Ciencias Médicas y Nutrición Salvador Zubirán (principal center) and Instituto Nacional de Cardiología Ignacio Chávez (recruiting center), two COVID-19 designated hospitals in Mexico City, Mexico.
# An intention-to-treat analysis was performed comparing the proportion of outcomes between both therapeutic arms using the X^2 test. A multivariate logistic regression model was used to evaluate the variables associated with primary outcomes.
# [1] = at the proposed dose of pyridostigmine (60 mg/day)
# [2] = secondary outcome, 60 mg/day orally, N = 94
compound,measurement,setting,value
CN(C)C(=O)Oc1ccc[n+](C)c1 [Pyridostigmine],Median time (IQR) from randomization to discharge,"60 mg/day orally, N = 94",5 days
same,Rate of adverse events,[1],5-6%
same,Serious adverse effects,[1],no serious adverse effects reported
same,Primary outcome: Invasive mechanical ventilation or death - %,"hospitalized severe COVID-19 patients, 60 mg/day orally up to 14 days, p=0.03",(11.7) %
same,Primary outcome: Invasive mechanical ventilation or death - %,"hospitalized severe COVID-19 patients, 60 mg/day orally up to 14 days, p=0.03, listed as pyridostigmine",11.7%
same,Primary outcome: Invasive mechanical ventilation or death - no.,"hospitalized severe COVID-19 patients, 60 mg/day orally up to 14 days, N = 94, intention to treat, day 28",11
same,"Death after invasive mechanical ventilation (text, among ventilated patients)","placebo 57.1%, no difference between groups",33.3%
same,"Risk index, 28-day case fatality","pyridostigmine vs. placebo, 95% CI 0.16 to 0.7, p=0.01",0.33
same,"Hazard ratio, invasive mechanical ventilation or death on day 28","pyridostigmine vs. placebo, 95% CI 0.24 to 0.94, p=0.03",0.47
same,Death after invasive mechanical ventilation - no.,[2],2
same,Invasive mechanical ventilation - %,[2],(6.4) %
same,Invasive mechanical ventilation - no.,[2],6
same,Invasive mechanical ventilation - %,"secondary outcome, 60 mg/day orally, N = 94, listed as pyridostigmine",6.3%
same,Death - no.,"secondary outcome, before day 28, 60 mg/day orally, N = 94",7
same,Death - % (28-day case fatality),"secondary outcome, N = 94, p=0.01",(7.5) %
same,Death - % (28-day case fatality),"secondary outcome, N = 94, p=0.01, listed as pyridostigmine",7.4%
same,Death after invasive mechanical ventilation - %,"secondary outcome, percent of all N = 94",(2.1) %
same,Discharge - no.,"secondary outcome, within 28 days of randomization, N = 94",87
same,Discharge - % (probability of being discharged from the hospital within 28 days of randomization),"within 28 days of randomization, N = 94, p=0.01",(92.6) %
same,Discharge - % (probability of being discharged from the hospital within 28 days of randomization),"within 28 days of randomization, N = 94, p=0.01, listed as pyridostigmine",92.6%
